Data published in patent US11779597B2, “Method of treating Parkinson's and other neurodegenerative diseases” (Vector Vitale IP LLC, priority 2019, dated 2023).

Tests used:
[1] = test system: circulating monocytes and granulocytes; experiment: Functional and phenotypic properties of circulating phagocytes in LPS rat models; type: in vivo; settings: animal models of PD
Description: On the 1st day of the experiment, rats were either operated to model hemi-parkinsonism or sham operated. From the 9th to the 18th day of the experiment, the animals were injected either deuterium-depleted water or the test substance, according to their allocation into groups, for 10 days. On the 8th day of the experiment (before initiation of treatment—apomorphine test I) and on the 21st day of the experiment (after the end of administering the test substance —apomorphine test II) the animals underwent an apomorphine test to analyze the development of hemi-parkinsonism which correlates with the number of destroyed dopaminergic neurons. In addition, a follow-up analysis of fecal water content was carried out, i.e., before the start of treatment on the 8th day after the operation, as well as on the 21st (after the end of treatment) and the 28th day (before autopsy). On the 24th day of the experiment, behavioral tests were carried out in all groups. All animals were weighed before autopsy. […]
To assess the anti-inflammatory and immunomodulating effects of the test substance, microglia and peritoneal macrophages were isolated. Phenotypic and functional features of peripheral blood phagocytes were evaluated without their fractioning (using whole blood). […]
Phagocytic activity of microglia, peritoneal macrophages and peripheral blood phagocytes was analyzed on a flow cytometer using FITC-labeled S. aureus Wood 46 cells as an object of phagocytosis. […]
Oxidative metabolism of phagocytes of various localization was analyzed by flow cytometry using the cell-permeant 2′7′-dichlorodihydrofluorescein-diacetate (DHP) (carboxy-H2DCFDA, Invitrogen, USA) which is converted by intracellular esterases to the nonfluorescent membrane-impermeable carboxy-H2DCF form.
The phenotypic profile of phagocytes of various localization was characterized by the expression of markers of functional maturity and metabolic polarization (CD206, CD80 and CD86), which was determined by flow cytometry and the use of monoclonal antibodies of appropriate specificity marked with fluorescent dyes (Abcam, Becton Dickinson).

[2] = test system: rat peripheral blood monocytes; experiment: Metabolic profile of nonsensitized rat peripheral blood monocytes in vitro; type: cell-based
Description: Materials and methods: Rat microglial cells were isolated by mechanical (cell sieves) disintegration of the brain tissue (FIG. 30A, FIG. 30B and FIG. 30C) followed by fractionation of the tissue homogenate in Percoll density gradient (Microglia: Methods and Protocols, Edited by Bertrand Josef and Jose Luis Venero, Springer protocol. Humana Press, 2013, 350 p.) (FIG. 31). Before the collection of the brain tissue, decapitation was performed to avoid hemorrhage to the brain during sampling (FIG. 32). Decapitation was performed immediately after anesthesia to minimize the death of brain tissue, including microglial cells. All manipulations for the isolation of microglial cells were carried out using coolants. Circulating neutrophils were isolated from venous blood taken into a tube containing EDTA in a two-step Percoll gradient (Alsharif K F et al. Vascul Pharmacol. 2015 August; 71:201-7. doi: 10.1016/j.vph.2015.02.006)(FIG. 33A and FIG. 33B). Circulating monocytes were isolated from venous blood collected into a tube containing heparin in a two-step Hypaque gradient (Macrophages and dendritic cells: Methods and Protocols, Edited by Neil E. Reiner, NY, Humana Press, 2009: 368 P). The metabolic profile of phagocytes was characterized based on the pathway of arginine metabolism (levels of arginase activity and NO synthesis measured using photocolorimetric methods), the level of formation of intracellular reactive oxygen species (ROS) by esterases and the indices of phagocytic activity determined by flow cytofluorimetry, as well as according to the activation levels of NADH and NADPH oxidases determined in NBT test. Duration of treatment of phagocytes of all the above mentioned populations varied depending on the methodological characteristics of metabolic response. A 90 minute exposure to the drugs according to Kim et al., 1977 (cited above) was used to analyze their effects on oxidative metabolism and phagocytic activity. An 18 hour exposure according to Lastra et al., 2001 (cited above) was used to analyze the drug effects on arginine metabolic pathway. To analyze the effects of the drugs under study on the induced (stimulated) metabolic activity of phagocytes, the cells were treated with lipopolysaccharide (LPS) from E. coli (Sigma, USA) according to Haddad et al., 2009 (cited above).

[3] = test system: human T-lymphocytes (CD3+); experiment: Spontaneous and PHA-induced proliferative activity and activation-induced apoptosis of T-lymphocytes; type: cell-based; design: activation-induced T-cell apoptosis: dose or concentration left out as unconfirmed
Description: Materials and Methods: Peripheral blood mononuclear cells were isolated from a healthy donor by density gradient centrifugation over Histopaque-1077 (Sigma, USA). Phytohemagglutinin (PHA) (Sigma, USA) was used to activate the proliferative activity of T-lymphocytes. The cells were exposed to the action of both preparations for 48 hours. A stimulatory (with the addition of the drugs as single components) and costimulatory (with the addition of the drugs in combination with PHA) effects were assessed. CD3 phenotypic marker was used to selectively measure proliferative activity of T-lymphocytes. The T-cell proliferative activity was assessed by analyzing the DNA status of CD3+ cells using a flow cytometry technique. The results are presented in the form of a proliferative index, calculated by the following formula: […]

[4] = test system: LPS rat models of Parkinson's disease; experiment: Pick-up test; type: in vivo; settings: group V (LPS+^64Zn-asp) versus group IV (LPS)
Description: The pick-up test is a test for increased irritability. The animal is picked up by grasping around the body. Responses were scored as 1, very easy; 2, easy with vocalizations; 3, some difficulty, the rat rears and faces the hand; 4, the rat freezes (with or without vocalization); 5, difficult, the rat avoids the hand by moving away; and 6, very difficult, the rat behaves defensively, and may attack the hand.
On the 1st day of the experiment, rats were either operated to model hemi-parkinsonism or sham operated. From the 9th to the 18th day of the experiment, the animals were injected either deuterium-depleted water or the test substance, according to their allocation into groups, for 10 days. […] On the 24th day of the experiment, behavioral tests were carried out in all groups.

“^64Zn-enriched zinc aspartate [^64Zne-asp]” was tested, and the “expression levels of all three markers (CD206, CD80, CD86) by circulating phagocytes” value [1] was “increase”, the “functional reserve of oxidative metabolism of circulating phagocytes” value [1] was “restore” and the “oxidative metabolism of circulating phagocytes of both populations” value [1] was “sharply reduced”. For the same substance, the “LPS-stimulated oxidase-dependent respiratory burst of monocytes” value [2] was “no effect”, the “production of nitric oxide by monocytes treated with LPS” value [2] was “moderately increased” and the “spontaneous esterase-dependent intracellular ROS production by monocytes” value [2] was “decrease”. For the same substance, the “intracellular ROS production by bacterial LPS-treated monocytes” value ([2]; 10 μg/ml) was “statistically significantly reduced”, the “spontaneous oxidative metabolism dependent on NADH and NADPH oxidases (NBT test) in monocytes” value ([2]; 10 μg/ml) was “slightly increased” and the “phagocytic activity of monocytes” value ([2]; concentrations ≤5 μg/ml) was “reduced”. For the same substance, the “spontaneous production of nitrites by nonsensitized circulating monocytes” value ([2]; regardless of the concentration) was “did not change significantly”, the “arginase activity of monocytes” value ([2]; resting cells and bacterial LPS-treated cells) was “absent” and the “activation-induced T-cell apoptosis” value ([3]; drug used alone) was “did not have any effect”. The “PHA (mitogen)-induced proliferative activity of T-lymphocytes” value ([3]; in combination with PHA, 48 hours) was “stimulatory and costimulatory effects”, the “activation-induced T-cell apoptosis” value ([3]; in combination with the mitogen) was “significantly decreased” and the “spontaneous proliferative activity of CD3+ T-lymphocytes” value ([3]; used separately from PHA, 48 hours) was “dose-dependent weak stimulatory effect”. For the same substance, the “irritation in the pick-up test” value [4] was “statistically significant elevation”.
